The CATMoS acute toxicity set (Mansouri et al. 2021)

experiment: GHS categories as the set defines them, by LD50: 1 up to 5, 2 up to 50, 3 up to 300, 4 up to 2000, 5 above 2000 mg/kg; conditions: rat; in vivo; po

Structure (SMILES)	GHS category
CC(Oc1ccc(Oc2ncc(C(F)(F)F)cc2Cl)cc1)C(=O)O (centres undefined)	4
Nc1c(/N=N/c2ccc(S(=O)(=O)CCOS(=O)(=O)O)cc2)c(S(=O)(=O)O)cc2cc(S(=O)(=O)O)c(/N=N/c3ccc(S(=O)(=O)CCOS(=O)(=O)O)cc3)c(O)c12	5
CCCCCCCCCC(C)=O	5
CON=C(C(=O)N[C@@H]1C(=O)N2C(C(=O)OC(C)OC(C)=O)=C(COC(N)=O)CS[C@H]12)c1ccco1 (some centres undefined)	5
CC(C)CC(=O)O[C@@H]1C[C@@H]2CC[C@@]1(C)C2(C)C (racemic)	5
CC(C)=CCCC(C)CCOCC=O (centres undefined)	5
O=P(Oc1ccccc1)(Oc1ccccc1)Oc1ccccc1-c1ccccc1	5
CCCC(CCC)C(=O)Oc1cc(C)ccc1C(C)C	5
O=C(O)CNC(=O)c1ccco1	5
Cc1c(CC(=O)O)c2c(n1CC(C)C)CC(C)(C)CC2=O	5
C[C@H]1COc2c(N3C[C@@H](N)C4(CCC4)C3)c(F)cc3c(=O)c(C(=O)O)cn1c23	5
COc1nc(Nc2ccc(C=Cc3ccc(Nc4nc(OC)nc(N(CCO)CCO)n4)cc3S(=O)(=O)O)c(S(=O)(=O)O)c2)nc(N(CCO)CCO)n1	5
Clc1ccc2oc(C3(Cn4cncn4)OCCCO3)cc2c1	4
N[C@@H](Cc1cnc[nH]1)C(=O)O	5
CO/N=C(/C(=O)N[C@@H]1C(=O)N2C(C(=O)OCOC(=O)C(C)(C)C)=C(C)CS[C@H]12)c1csc(N)n1	5
O=C1OC(=O)c2c(Cl)c(Cl)c(Cl)c(Cl)c21	5
CCCCCCCCCCCCCCCC(=O)OC	5
CCCCNC(=O)c1cnc2cccc(C)n2c1=O	3
CCCc1c(Cc2ccc(-c3ccccc3-c3nn[nH]n3)cc2)c(N2CCCCC2)nc2ncnn12	4
COc1ccc(C=CC(C)=O)cc1	5
Cc1cc(C)cc(N2C(=O)c3ccc4c5ccc6c7c(ccc(c8ccc(c3c48)C2=O)c75)C(=O)N(c2cc(C)cc(C)c2)C6=O)c1	5
CCOc1ccc(C2(C(=O)OC(C#N)c3cccc(Oc4ccccc4)c3)CC2(Cl)Cl)cc1 (centres undefined)	5
CCC(=O)OC1CC2CC1C1CC=CC21 (centres undefined)	5

Structure (SMILES)	GHS category
CCC(C)(C)c1ccccc1	5
OC1c2ccccc2CCc2ccncc21 (centres undefined)	5
CC1=CC2[C@@H](C(=O)O1)C2(C)C (some centres undefined)	5
CC1CC(OC(=O)C(C)Oc2ccc(F)cc2)CC(C)(C)C1 (centres undefined)	5
CCCCCC(=O)CC	5
O=C(O)CCCCC(=O)O	5
CC(C)=CCC(C#N)(CCN1CCCCC1)c1cccc2ccccc12 (centres undefined)	4
CCN1C(=CC=CC=Cc2sc3ccccc3[n+]2CC)Sc2ccccc21	3
O=[N+]([O-])c1ccc(Nc2ccccc2)cc1	5
CC(=O)OCC(=O)[C@@]1(O)CC[C@H]2[C@@H]3CCC4=CC(=O)CC[C@]4(C)[C@@]3(F)[C@@H](O)C[C@@]21C	4
CCCC1(C)COC(Cn2cncn2)(c2cc3ccccc3o2)OC1 (centres undefined)	4
COC(=O)CCCCCCCCC(=O)OC	5
CCCCC(=O)N(Cc1ccc(-c2ccccc2-c2nnn[nH]2)cc1)[C@@H](C(=O)O)C(C)C	5
COc1ccc(OC)c(C=O)c1	5
COc1ccc2c(c1)CCN(c1ccccc1)C2c1ccccc1F (centres undefined)	4
Cc1[nH]c2ccc(O)cc2c1CC(=O)OCC(=O)O	5
CC(C)(C)C1CCC(C2=C(O)c3ccccc3C(=O)C2=O)CC1 (centres undefined)	5
C[C@@H]1CC(C)(C)O[C@](Cn2cncn2)(c2cc3ccccc3o2)O1	4
CCOc1ccccc1C(=N)N	4
CC(=O)Nc1ccc(Cc2ccccn2)c([N+](=O)[O-])c1	3
CCCCc1oc2ccc([N+](=O)[O-])cc2c1C(=O)c1ccc(O)cc1	5
CO[C@]1(C)CC[C@@]23C[C@@H]1C(C)(C)[C@@H]2CC[C@H]3C	5
NC(CCOc1ccc(C(=NO)C(=O)NC2CN(C(C(=O)O)c3ccc(O)cc3)C2=O)cc1)C(=O)O (centres undefined)	5

Structure (SMILES)	GHS category
CCCC(=O)c1ccc2[nH]c(=O)oc2c1	5
CC[C@H]1OC(=O)C[C@@H](O)[C@H](C)[C@@H](O[C@@H]2O[C@H](C)[C@@H](O[C@H]3C[C@@](C)(O)[C@@H](O)[C@H](C)O3)[C@H](N(C)C)[C@H]2O)[C@@H](CC=O)C[C@@H](C)C(=O)C=CC(C)=CC1CO[C@@H]1O[C@H](C)[C@@H](O)[C@@H](OC)[C@H]1OC (some centres undefined)	5
c1ccc(-c2cc3ccccc3[nH]2)cc1	5
CCC1CCC(=O)O1 (centres undefined)	5
CNC(=O)C(=NNc1ccc(OC)cc1)C(C)=O	5
COC(=O)c1cc(Cl)ccc1OC(N)=O	5
Brc1cnc2[nH]ccc2c1	5
CC(O)CSCCCCCCCCC(C)(C)C (centres undefined)	5
CC(C)=CCN(CC=C(C)C)CCC(C#N)(c1ccc2ccccc2c1)C(C)C (centres undefined)	4
C[N+](C)(CCO)CC(O)C[N+](C)(C)CCO	4
O=C(O)Cc1ccc(Cl)cc1Cl	5
CCOC(=O)c1cnn(-c2cccc(C)c2)c1C#N	4
CCCc1c(Cc2ccc(-c3oc(Br)cc3-c3nn[nH]n3)cc2)c(=O)nc2nc[nH]n12	4
O=C=Nc1cc(Cl)cc(Cl)c1	5
CCN1CCN(C(=O)N[C@@H](C(=O)N[C@]2(OC)C(=O)N3C(C(=O)O)=C(CSc4nnnn4C)CS[C@@H]32)[C@H](C)O)C(=O)C1=O	5
CCCCCCCC/C=C\CCCCCCCC#N	5
C/C=C(\C)C(=O)OC/C=C(\C)CCC=C(C)C	5
NNC(=O)NN	5
NS(=O)(=O)c1cc(C2(O)NC(=O)c3ccccc32)ccc1Cl (centres undefined)	5
O=C1CCc2c(cccc2OCCCN2CCC(Cc3ccccc3)CC2)N1	4
CCCCCC(=O)Nc1ccc(Cc2ccccn2)c([N+](=O)[O-])c1	3
CN(C)c1ccc(NC(=O)CCCSc2nnnn2C)cc1	4
CO[C@H]1C=CO[C@@]2(C)Oc3c(C)c(O)c4c(O)c(c(/C=N/N5CCN(C6CCCC6)CC5)c(O)c4c3C2=O)NC(=O)C(C)=CC=C[C@H](C)[C@H](O)[C@@H](C)[C@@H](O)[C@@H](C)[C@H](OC(C)=O)[C@@H]1C	5

Structure (SMILES)	GHS category
C(=C\c1ccccc1)/CN1CCN(C(c2ccccc2)c2ccccc2)CC1	5
CCCNC(=O)c1cnc2cccc(C)n2c1=O	3
NCCCN(CCO)CCO	5
CC(CC(C)(C)C)CC(C)(C)CC(C)(C)C (centres undefined)	5
Cc1cc(C)nc(NC(=O)NS(=O)(=O)c2ccccc2C(=O)OC2COC2)n1	5
CCOC(C)(C)CC	5
c1ccc(Cn2ccnc2-c2nn[nH]n2)cc1	5
CCCCC1=NC2(CCCC2)C(=O)N1Cc1ccc(-c2ccccc2C#N)cc1	5
O=C(NC(=O)c1c(F)cccc1F)Nc1ccc(Oc2ccc(C(F)(F)F)cc2Cl)cc1F	5
CC(C)CCCC1CCC(C)(C(=O)O)CC1 (centres undefined)	5
CCOC(/C=C(\C)CCC=C(C)C)OCC	5
COC(=O)c1ccc2c(C3CCCC3)cn(C)c2c1	5
CCCCCCCCCCCCCC(=O)Nc1ccc(Cc2ccccn2)c([N+](=O)[O-])c1	3
CCCCCCCCCCCCCC=O	5
O=C=NS(=O)(=O)c1ccccc1C(F)(F)F	4
CCCCCNC(=O)c1ccccc1	5
Cc1c(C)c2c(c(C)c1OC(=O)C(C)(C)Oc1ccc(Cl)cc1)CC[C@@](C)(CCC[C@H](C)CCC[C@H](C)CCCC(C)C)O2	5
O=C1CCCCCN1C(=O)Nc1ccc(Cc2ccc(NC(=O)N3CCCCCC3=O)cc2)cc1	5
CCCCOC(=O)Nc1nc(N2CC=CCC2)cc2nc(=O)on12	5
Cc1cc(Cl)ccc1-n1c(C)nc2cccc(Cl)c2c1=O	5
CCOC(=O)C(F)F	5
Nc1nc(=O)c2c([nH]1)NCC(CNc1ccc(C(=O)N[C@@H](CCC(=O)O)C(=O)O)cc1)N2C=O (some centres undefined)	5
C=CCCCCCCCCC(=O)NCC(=O)O	5

Structure (SMILES)	GHS category
C=C(C)C(=O)OCCc1ccccc1	5
CC(=O)C1(Cl)CC1	4
O=C1NCCCN1CN1CCOCC1	5
Cn1nnnc1SCC1=C(C(=O)O)N2C(=O)[C@@H](NC(=O)[C@H](O)c3ccccc3)[C@H]2SC1	5
c1ccc(CSCc2ccccc2)cc1	5
NS(=O)(=O)c1cc2c(cc1Cl)N=C(CSCc1ccccc1)NS2(=O)=O	5
O=C(CCc1ccc(O)cc1)Nc1ccccc1C(=O)O	5
Nc1ccc(OS(=O)(=O)O)c(C(=O)O)c1	5
CC1CC(OC(=O)COc2ccc(Cl)cc2)CC(C)(C)C1 (centres undefined)	5
O=C(O)CCCCCCCCCCCC(=O)O	5
CC12CCC(O)C=C1C(O)CC1(O)C2CCC2(C)C(c3ccc(=O)oc3)CCC21O (centres undefined)	2
CC1CC(OC(=O)C(C)(C)Oc2ccccc2Cl)CC(C)(C)C1 (centres undefined)	5
CCCCCCCCCCCCCC(=O)O	5
CCCCCCCCCCCCCCCCOP(=O)(O)O	5
CNS(=O)(=O)Cc1ccc2[nH]cc(CCN(C)C)c2c1	5
CCCCCCCCCCCCCCCCCC(=O)OCC(COC(=O)CCCCCCCCCCCCCCCCC)OC(=O)CCCCCCCCCCCCCCCCC	5
O=c1ccc2cccnc2n1-c1cccc(C(F)(F)F)c1	3
O=c1[nH]c(=O)n([C@H]2C[C@H](O)[C@@H](CO)O2)cc1C(F)(F)F	5
CCCCOC(=O)C1C(C(=O)OCCCC)C2(Cl)C(Cl)=C(Cl)C1(Cl)C2(Cl)Cl (centres undefined)	5
C=C(C)C(=O)OCCOCCOCCCC	5
O=c1cc[nH]c(=O)[nH]1	5
CC[C@H]1C[C@H]2[C@@H]3CCC4=CC(=O)CC[C@@H]4[C@H]3CC[C@]2(C)[C@H]1OC(C)=O	5
